Experimental data as given in patent US20240016245A1, “ANTIMICROBIAL FACEMASK” (BMG (British Medical Group) Limited, priority 2020, published 2024).

Assay: Compatibility of surfactants with copper sulfate solutions for coating fabric
Format: physicochemical

Compound: CCCCCCCCCCCC[N+](C)(C)[O-] [dimethyl dodecylamine N-oxide]
- precipitation from copper sulfate solutions / solution suitable for coating: causing precipitation

Compound: CCCCCCCCCCCCOS(=O)(=O)[O-].[Na+] [sodium dodecylsulfate]
- precipitation from copper sulfate solutions / solution suitable for coating: acceptable solution for coating

Compound: CCCCCCCCCCCC[N+](C)(C)CCCS(=O)(=O)O [lauryl sulfobetaine]
- precipitation from copper sulfate solutions / solution suitable for coating: did not cause precipitation

Compound: sodium dodecylbenzenesulfonate
- solubility in solutions of copper sulfate (in solutions of copper sulfate): very low and insufficient solubility

Compound: CCCCCCCCCCCC[N+](C)(C)CC(=O)O [dimethyl dodecylglycine betaine]
- precipitation from copper sulfate solutions / solution suitable for coating: did not cause precipitation
